According to patent publication US10111875B2, “Pyrrolopyrimidine compounds and uses thereof” (HUTCHISON MEDIPHARMA LIMITED, priority 2010, dated 2018):

Biological target: Recombinant human JAK1 catalytic domain (Homo sapiens (Human), UniProt P23458)
Experiment: JAK1 kinase assay (Z'-LYTE Tyr 6 Peptide)
Format: biochemical
Settings: JAK1 kinase assay, 0.3 uM concentration; read-out: inhibition percentage (IR %)
Method: JAK1/2/3 kinase assay are performed in vitro using Kit-Tyr 6 Peptide (Invitrogen, Cat. No. PV4122). TYK2 kinase assay are performed in vitro using Z′-LYTE™ Kinase Assay Kit-Tyr 3 Peptide (Invitrogen, Cat. No. PV3192). […] All compounds are initially tested at 8 different concentrations (1 μM down to 0.0003 μM) using a 1:3 serial dilution scheme.

Sequence of Recombinant human JAK1 catalytic domain (P23458 875-1153): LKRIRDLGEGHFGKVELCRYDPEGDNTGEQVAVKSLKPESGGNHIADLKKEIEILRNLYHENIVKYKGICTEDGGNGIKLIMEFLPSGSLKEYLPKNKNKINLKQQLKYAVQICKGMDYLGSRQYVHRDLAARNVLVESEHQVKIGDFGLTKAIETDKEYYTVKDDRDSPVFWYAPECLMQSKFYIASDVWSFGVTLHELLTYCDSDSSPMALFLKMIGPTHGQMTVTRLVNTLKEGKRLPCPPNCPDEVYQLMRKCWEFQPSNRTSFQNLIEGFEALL

CCCC(=O)N(C)[C@@H]1CCN(c2ncnc3[nH]ccc23)C1 [Compound 3] and CN(C(=O)CS(C)(=O)=O)[C@@H]1CCN(c2ncnc3[nH]ccc23)C1 [Compound 27] fall in the same range of inhibition at 0.3 µM: 50 to 100% for the first, 50 to 100% for the second.

CN(c1ccc(S(=O)(=O)NC(C)(C)C)cn1)[C@@H]1CCN(c2ncnc3[nH]ccc23)C1 [Compound 238] and CN(c1ccc(S(=O)(=O)NC2CC2)cn1)[C@@H]1CCN(c2ncnc3[nH]ccc23)C1 [Compound 236] fall in the same range of inhibition at 0.3 µM: 50 to 100% for the first, 50 to 100% for the second.

CC(C)S(=O)(=O)Nc1ccc(N(C)[C@@H]2CCN(c3ncnc4[nH]ccc34)C2)nc1 [Compound 218] and CN(c1ccc(NS(=O)(=O)c2cccs2)cn1)[C@@H]1CCN(c2ncnc3[nH]ccc23)C1 [Compound 214] fall in the same range of inhibition at 0.3 µM: 50 to 100% for the first, 50 to 100% for the second.

Compared with CN(c1ccc(NS(=O)(=O)c2ccc(F)cc2)cn1)[C@@H]1CCN(c2ncnc3[nH]ccc23)C1 [Compound 212], CN(c1ccc(NS(=O)(=O)Cc2ccc(F)cc2)cn1)[C@@H]1CCN(c2ncnc3[nH]ccc23)C1 [Compound 221] is lower in inhibition at 0.3 µM: 50 to 100% for the first, 20 to 50% for the second.

CN(C1CCCC1)[C@@H]1CCN(c2ncnc3[nH]ccc23)C1 [Compound 53] and CN([C@@H]1CCN(c2ncnc3[nH]ccc23)C1)S(=O)(=O)N1CCCC1 [Compound 15] fall in the same range of inhibition at 0.3 µM: 50 to 100% for the first, 50 to 100% for the second.

Compared with CN(c1ccc(C(=O)N[C@@H]2c3ccccc3C[C@@H]2O)cc1F)[C@@H]1CCN(c2ncnc3[nH]ccc23)C1 [Compound 203], CN(c1ccc(C(=O)NC2c3ccccc3CC2O)cc1F)[C@@H]1CCN(c2ncnc3[nH]ccc23)C1 (some centres unmarked) [Compound 184] is higher in inhibition at 0.3 µM: 20 to 50% for the first, 50 to 100% for the second.

CN(c1ccc(S(=O)(=O)NCc2ccc(F)cc2)cn1)[C@@H]1CCN(c2ncnc3[nH]ccc23)C1 [Compound 254] and C[C@H](NS(=O)(=O)c1ccc(N(C)[C@@H]2CCN(c3ncnc4[nH]ccc34)C2)nc1)c1ccc(F)cc1 [Compound 256] fall in the same range of inhibition at 0.3 µM: 50 to 100% for the first, 50 to 100% for the second.

CN(c1ccc(C#N)cn1)[C@@H]1CCN(c2ncnc3[nH]ccc23)C1 [Compound 71] and N#Cc1ccc(N(C2CC2)[C@@H]2CCN(c3ncnc4[nH]ccc34)C2)nc1 [Compound 41] fall in the same range of inhibition at 0.3 µM: 50 to 100% for the first, 50 to 100% for the second.

CN(c1ccc2nc[nH]c2n1)[C@@H]1CCN(c2ncnc3[nH]ccc23)C1 [Compound 163, (R)—N-(1-(7H-pyrrolo[2,3-d]pyrimidin-4-yl)pyrrolidin-3-yl)-N-methyl-3H-imidazo[4,5-b]pyridin-5-amine] and CN(c1ccnc(Cl)n1)[C@@H]1CCN(c2ncnc3[nH]ccc23)C1 [Compound 63, (R)—N-(1-(7H-pyrrolo[2,3-d]pyrimidin-4-yl)pyrrolidin-3-yl)-2-chloro-N-methylpyrimidin-4-amine] fall in the same range of inhibition at 0.3 µM: 50 to 100% for the first, 50 to 100% for the second.

Cc1cc(Cl)nc(N(C)[C@@H]2CCN(c3ncnc4[nH]ccc34)C2)c1C#N [Compound 73] and CN(c1nc(Cl)c(C#N)cc1F)[C@@H]1CCN(c2ncnc3[nH]ccc23)C1 [Compound 87] fall in the same range of inhibition at 0.3 µM: 50 to 100% for the first, 50 to 100% for the second.

Compared with CN(C(=O)c1ccc(N(C)[C@@H]2CCN(c3ncnc4[nH]ccc34)C2)nc1)c1ccccc1 [Compound 197], C[C@H](NC(=O)c1ccc(N(C)[C@@H]2CCN(c3ncnc4[nH]ccc34)C2)nc1)c1ccccc1 [Compound 188] is lower in inhibition at 0.3 µM: 50 to 100% for the first, 20 to 50% for the second.

CN(c1ccc(C(=O)N[C@H](CO)c2ccccc2)cn1)[C@@H]1CCN(c2ncnc3[nH]ccc23)C1 [Compound 174] and CN(c1ccc(C(=O)Nc2ccccc2F)cn1)[C@@H]1CCN(c2ncnc3[nH]ccc23)C1 [Compound 192] fall in the same range of inhibition at 0.3 µM: 50 to 100% for the first, 50 to 100% for the second.

First: CN(c1ccc(C#N)nc1)[C@@H]1CCN(c2ncnc3[nH]ccc23)C1 [Compound 76]
Second: CN(c1ccnc(C#N)c1)[C@@H]1CCN(c2ncnc3[nH]ccc23)C1 [Compound 121]
The inhibition at 0.3 µM of the first is lower: 20 to 50% for the first, 50 to 100% for the second.

Cc1cc(N(C)[C@@H]2CCN(c3ncnc4[nH]ccc34)C2)ncc1[N+](=O)[O-] [Compound 77] and Cc1cc(N(C)[C@@H]2CCN(c3ncnc4[nH]ccc34)C2)ncc1C#N [Compound 157] fall in the same range of inhibition at 0.3 µM: 50 to 100% for the first, 50 to 100% for the second.

First: C#CCN(c1ccc(C#N)cc1)[C@@H]1CCN(c2ncnc3[nH]ccc23)C1 [Compound 131]
Second: C#CCN(c1ccc(C#N)cc1F)[C@@H]1CCN(c2ncnc3[nH]ccc23)C1 [Compound 130]
The inhibition at 0.3 µM of the first is higher: 50 to 100% for the first, 20 to 50% for the second.

CN(c1ccc(S(=O)(=O)NC2COC2)cn1)[C@@H]1CCN(c2ncnc3[nH]ccc23)C1 [Compound 242] and CN(c1ccc(S(=O)(=O)NC2CCC[C@@H]2O)cn1)[C@@H]1CCN(c2ncnc3[nH]ccc23)C1 (some centres unmarked) [Compound 246] fall in the same range of inhibition at 0.3 µM: 50 to 100% for the first, 50 to 100% for the second.

CN(c1ccc(S(=O)(=O)NCCO)cn1)[C@@H]1CCN(c2ncnc3[nH]ccc23)C1 [Compound 243] and CN(C)CCNS(=O)(=O)c1ccc(N(C)[C@@H]2CCN(c3ncnc4[nH]ccc34)C2)nc1 [Compound 248] fall in the same range of inhibition at 0.3 µM: 50 to 100% for the first, 50 to 100% for the second.

Compared with CN(C(=O)c1cccnc1)[C@@H]1CCN(c2ncnc3[nH]ccc23)C1 [Compound 5], CN(C(=O)Nc1ccc(Cl)cc1)[C@@H]1CCN(c2ncnc3[nH]ccc23)C1 [Compound 33] is higher in inhibition at 0.3 µM: 20 to 50% for the first, 50 to 100% for the second.

CN(c1ccc(C#N)c2ccccc12)[C@@H]1CCN(c2ncnc3[nH]ccc23)C1 [Compound 111] and CN(c1ccc(C#N)c(O)n1)[C@@H]1CCN(c2ncnc3[nH]ccc23)C1 [Compound 260] fall in the same range of inhibition at 0.3 µM: 50 to 100% for the first, 50 to 100% for the second.

CN(c1ncc(C#N)cc1[N+](=O)[O-])[C@@H]1CCN(c2ncnc3[nH]ccc23)C1 [Compound 96] and CN(c1ncc(C#N)cc1Cl)[C@@H]1CCN(c2ncnc3[nH]ccc23)C1 [Compound 83] fall in the same range of inhibition at 0.3 µM: 50 to 100% for the first, 50 to 100% for the second.

Compared with CN(c1ccn2nccc2n1)[C@@H]1CCN(c2ncnc3[nH]ccc23)C1 [Compound 88], CN(c1ncnc2ccccc12)[C@@H]1CCN(c2ncnc3[nH]ccc23)C1 [Compound 80] is higher in inhibition at 0.3 µM: 20 to 50% for the first, 50 to 100% for the second.

Compared with CN(c1ccc(C#N)c(C#N)c1)[C@@H]1CCN(c2ncnc3[nH]ccc23)C1 [Compound 113], CN(c1ccc(C#N)cc1[N+](=O)[O-])[C@@H]1CCN(c2ncnc3[nH]ccc23)C1 [Compound 107] is higher in inhibition at 0.3 µM: 20 to 50% for the first, 50 to 100% for the second.

First: CN(c1ccc(C(=O)NCCO)cn1)[C@@H]1CCN(c2ncnc3[nH]ccc23)C1 [Compound 190]
Second: COc1cccc(NC(=O)c2ccc(N(C)[C@@H]3CCN(c4ncnc5[nH]ccc45)C3)nc2)c1 [Compound 196]
The inhibition at 0.3 µM of the first is higher: 50 to 100% for the first, 20 to 50% for the second.

CN(C(=O)N[C@@H]1c2ccccc2C[C@H]1O)[C@@H]1CCN(c2ncnc3[nH]ccc23)C1 [Compound 29, 1-((R)-1-(7H-pyrrolo[2,3-d]pyrimidin-4-yl)pyrrolidin-3-yl)-3-((1R,2R)-2-hydroxy-2,3-dihydro-1H-inden-1-yl)-1-methylurea] and CN(c1ccc(NC(=O)c2ccccc2Cl)cn1)[C@@H]1CCN(c2ncnc3[nH]ccc23)C1 [Compound 227] fall in the same range of inhibition at 0.3 µM: 50 to 100% for the first, 50 to 100% for the second.

Compared with CN([C@@H]1CCN(c2ncnc3[nH]ccc23)C1)S(=O)(=O)c1ccc([N+](=O)[O-])cc1 [Compound 11], CN(c1ccc(S(=O)(=O)C(F)(F)F)cc1)[C@@H]1CCN(c2ncnc3[nH]ccc23)C1 [Compound 122] is higher in inhibition at 0.3 µM: 20 to 50% for the first, 50 to 100% for the second.

Compared with CN(c1ccc(C(=O)NC[C@H](O)c2ccccc2)cc1Cl)[C@@H]1CCN(c2ncnc3[nH]ccc23)C1 [Compound 189], CN(c1ccc(C(=O)NC[C@H](O)c2ccccc2)cc1F)[C@@H]1CCN(c2ncnc3[nH]ccc23)C1 [Compound 202] is higher in inhibition at 0.3 µM: 20 to 50% for the first, 50 to 100% for the second.

CN(c1ccc(-c2ccc(C#N)cc2)cn1)[C@@H]1CCN(c2ncnc3[nH]ccc23)C1 [Compound 146] and CN(c1ccc(-c2nn[nH]n2)cn1)[C@@H]1CCN(c2ncnc3[nH]ccc23)C1 [Compound 160, (R)—N-(1-(7H-pyrrolo[2,3-d]pyrimidin-4-yl)pyrrolidin-3-yl)-N-methyl-5-(2H-tetrazol-5-yl)pyridin-2-amine] fall in the same range of inhibition at 0.3 µM: 20 to 50% for the first, 20 to 50% for the second.

CN(c1ccc(C(=O)NCc2ccccc2)cc1F)[C@@H]1CCN(c2ncnc3[nH]ccc23)C1 [Compound 187] and CN(c1ccc(NS(=O)(=O)Cc2cccc(F)c2)cn1)[C@@H]1CCN(c2ncnc3[nH]ccc23)C1 [Compound 220] fall in the same range of inhibition at 0.3 µM: 50 to 100% for the first, 50 to 100% for the second.

CC(C)S(=O)(=O)N(C)[C@@H]1CCN(c2ncnc3[nH]ccc23)C1 [Compound 49] and CN(C)S(=O)(=O)N(C)[C@@H]1CCN(c2ncnc3[nH]ccc23)C1 [Compound 14] fall in the same range of inhibition at 0.3 µM: 50 to 100% for the first, 50 to 100% for the second.

First: N#Cc1cnc2c(c1)[nH]c(=O)n2[C@@H]1CCN(c2ncnc3[nH]ccc23)C1 [Compound 165, (R)-3-(1-(7H-pyrrolo[2,3-d]pyrimidin-4-yl)pyrrolidin-3-yl)-2-oxo-2,3-dihydro-1H-imidazo[4,5-b]pyridine-6-carbonitrile]
Second: CN(c1ncc(C#N)cc1F)[C@@H]1CCN(c2ncnc3[nH]ccc23)C1 [Compound 158]
The inhibition at 0.3 µM of the first is lower: 20 to 50% for the first, 50 to 100% for the second.

CN(c1cc(F)cc(F)c1C#N)[C@@H]1CCN(c2ncnc3[nH]ccc23)C1 [Compound 118] and C#CCN(C)[C@@H]1CCN(c2ncnc3[nH]ccc23)C1 [Compound 65] fall in the same range of inhibition at 0.3 µM: 20 to 50% for the first, 20 to 50% for the second.

Same assay, conditions: read-out: inhibition percentage (IR %)

CN(c1ccc(-c2ccncc2)cn1)[C@@H]1CCN(c2ncnc3[nH]ccc23)C1 [Compound 144] and CN(c1ccc(NCc2ccc(F)cc2)cn1)[C@@H]1CCN(c2ncnc3[nH]ccc23)C1 [Compound 230, (R)—N^5-(4-fluorobenzyl)-N^2-(1-(7H-pyrrolo[2,3-d]pyrimidin-4-yl)pyrrolidin-3-yl)-N^2-methylpyridine-2,5-diamine] fall in the same range of inhibition at 0.3 µM: 50 to 100% for the first, 50 to 100% for the second.

CN(c1ccc(C#N)c(Cl)c1)[C@@H]1CCN(c2ncnc3[nH]ccc23)C1 [Compound 116] was tested, and the inhibition at 0.3 µM was 20 to 50%.
